Source: patent US6642020B2, “Process for preparing cephalosporin derivatives” (Bioferma Murcia S.A., priority 2001, dated 2003)

Assay: Stability of cephalosporin C solution without thiol on heating
Assay type: physicochemical
Settings: aqueous cephalosporin C solution without the thiol, 80° C.

Structure (SMILES): CC(=O)OCC1=C(C(=O)O)N2C(=O)C(NC(=O)CCC[C@@H](N)C(=O)O)[C@H]2SC1 (stereo partly drawn) [cephalosporin C, 3-acetoxymethyl-7-(D-5-amino-5-carboxypentan amido)-ceph-3-em-4-carboxylic acid]
- time to complete degradation (β-lactam ring degradation): ≤ 40 min
